Measurements taken from patent US20100292266A1, “Oxazolyl Piperidine Modulators of Fatty Acid Amide Hydrolase” (priority 2006, published 2010).
pIC50: −log10 of the molar value.

Columns and labels:
[1] = target: T1, FAAH (Homo sapiens, UniProt O00519); test: Assay Method 1: FAAH assay, 3H-anandamide hydrolysis in cell homogenate; format: biochemical; set-up: expressed in transfected cells; settings: T84 or transfected SK-N-MC cell homogenate, 80 nM 3H-AEA, 1 h rt, > = solubility limit or highest concentration tested
T1 sequence (O00519 1-579): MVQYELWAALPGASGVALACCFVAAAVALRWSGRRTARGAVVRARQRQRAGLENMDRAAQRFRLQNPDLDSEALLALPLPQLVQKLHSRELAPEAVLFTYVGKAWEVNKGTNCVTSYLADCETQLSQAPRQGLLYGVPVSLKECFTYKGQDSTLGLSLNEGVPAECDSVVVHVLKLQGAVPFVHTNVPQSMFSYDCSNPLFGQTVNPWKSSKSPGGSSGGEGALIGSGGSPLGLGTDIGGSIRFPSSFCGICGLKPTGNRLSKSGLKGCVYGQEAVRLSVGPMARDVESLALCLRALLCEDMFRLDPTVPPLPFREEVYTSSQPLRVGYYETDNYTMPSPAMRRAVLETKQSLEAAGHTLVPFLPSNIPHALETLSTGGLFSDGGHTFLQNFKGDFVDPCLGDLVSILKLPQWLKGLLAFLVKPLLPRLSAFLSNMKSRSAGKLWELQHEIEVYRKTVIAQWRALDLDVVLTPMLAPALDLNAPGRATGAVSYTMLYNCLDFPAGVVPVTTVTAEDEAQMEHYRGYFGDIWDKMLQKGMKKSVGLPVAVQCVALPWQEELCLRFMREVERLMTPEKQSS
Method: A. Transfection of Cells with Human FAAH
(§1) A 10-cm tissue culture dish with a confluent monolayer of SK-N-MC cells was split 2 days (d) prior to transfection. Using sterile technique, the media was removed and the cells were detached from the dish by the addition of trypsin. One fifth of the cells were then placed onto a new 10-cm dish. Cells were grown in a 37° C. incubator with 5% CO2 in Minimal Essential Media Eagle with 10% Fetal Bovine Serum. After 2 d, cells were approximately 80% confluent. These cells were removed from the dish with trypsin and pelleted in a clinical centrifuge. The pellet was re-suspended in 400 μL complete media and transferred to an electroporation cuvette with a 0.4 cm gap between the electrodes. Supercoiled human FAAH cDNA (1 μg) was added to the cells and mixed. The voltage for the electroporation was set at 0.25 kV, and the capacitance was set at 960 μF. After electroporation, the cells were diluted into complete media (10 mL) and plated onto four 10-cm dishes. Because of the variability in the efficiency of electroporation, four different concentrations of cells were plated. The ratios used were 1:20, 1:10, and 1:5, with the remainder of the cells being added to the fourth dish. The cells were allowed to recover for 24 h before adding the selection media (complete media with 600 μg/mL G418). After 10 d, dishes were analyzed for surviving colonies of cells. Dishes with well-isolated colonies were used. Cells from individual colonies were isolated and tested.
(§2) The assay mixture consisted of 50 μL of the cell homogenate, 10 μL of the test compound, and 40 μL of anandamide [1-^3H-ethanolamine] (^3H-AEA, Perkin-Elmer, 10.3 Ci/mmol), which was added last, for a final tracer concentration of 80 nM. The reaction mixture was incubated at rt for 1 h. During the incubation, 96-well Multiscreen filter plates (catalog number MAFCNOB50; Millipore, Bedford, Mass., USA) were loaded with 25 μL of activated charcoal (Multiscreen column loader, catalog number MACL09625, Millipore) and washed once with 100 μL of MeOH. Also during the incubation, 96-well DYNEX MicroLite plates (catalog number NL510410) were loaded with 100 μL of MicroScint40 (catalog number 6013641, Packard Bioscience, Meriden, Conn., USA). After the 1 h incubation, 60 μL of the reaction mixture were transferred to the charcoal plates, which were then assembled on top of the DYNEX plates using Centrifuge Alignment Frames (catalog number MACF09604, Millipore). The unbound labeled ethanolamine was centrifuged through to the bottom plate (5 min at 2000 rpm), which was preloaded with the scintillant, as described above. The plates were sealed and left at rt for 1 h before counting on a Hewlett Packard TopCount.
(§3) Where activity is shown as greater than (>) a particular value, the value is the solubility limit of the compound in the assay medium or the highest concentration tested in the assay.

[2] = target: T2, Rat FAAH (Rattus norvegicus, UniProt P97612); test: Assay Method 2: FAAH assay, 3H-anandamide hydrolysis in cell homogenate; format: biochemical; settings: transfected SK-N-MC cell homogenate, 80 nM 3H-AEA, 1 h rt, > = solubility limit or highest concentration tested
T2 construct: expressed in transfected cells
T2 sequence (P97612 1-579): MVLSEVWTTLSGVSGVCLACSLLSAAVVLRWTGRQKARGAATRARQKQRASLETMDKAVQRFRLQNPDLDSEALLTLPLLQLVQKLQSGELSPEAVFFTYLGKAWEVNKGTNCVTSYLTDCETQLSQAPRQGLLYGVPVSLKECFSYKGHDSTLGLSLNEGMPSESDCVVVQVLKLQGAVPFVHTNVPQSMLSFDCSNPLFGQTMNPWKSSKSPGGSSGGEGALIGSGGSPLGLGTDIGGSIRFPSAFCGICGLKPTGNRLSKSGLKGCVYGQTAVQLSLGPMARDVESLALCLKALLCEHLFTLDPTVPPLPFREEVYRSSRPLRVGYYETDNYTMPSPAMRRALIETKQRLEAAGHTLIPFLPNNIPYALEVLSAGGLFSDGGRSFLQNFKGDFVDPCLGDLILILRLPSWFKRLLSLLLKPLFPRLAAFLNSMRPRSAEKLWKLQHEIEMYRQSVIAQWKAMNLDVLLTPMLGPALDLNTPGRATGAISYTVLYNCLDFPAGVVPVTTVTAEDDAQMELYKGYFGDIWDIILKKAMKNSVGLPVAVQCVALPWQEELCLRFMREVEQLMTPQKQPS
Method: A. Transfection of Cells with Rat FAAH
as §1, with “rat” for “human”
as §2, with “incubated at […] for 1” for “incubated at rt for 1”, “labeled ethanolamine . was centrifuged” for “labeled ethanolamine was centrifuged”
as §3

| SMILES | pIC50 [1] | pIC50 [2] |
| --- | --- | --- |
| O=C(c1ncco1)C1CCN(Cc2ccc3c(c2)OCO3)CC1 [Example 15, (1-Benzo[1,3]dioxol-5-ylmethyl-piperidin-4-yl)-oxazol-2-yl-methanone] | 6.95 | 6.24 |
| CC(C)COc1cccc(CN2CCC(C(=O)c3ncco3)CC2)c1 [Example 16, [1-(3-Isobutoxy-benzyl)-piperidin-4-yl]-oxazol-2-yl-methanone] | 7.51 | 6.01 |
| O=C(c1ncco1)C1CCN(Cc2ccc(C(F)(F)F)cc2)CC1 [Example 19] | 8.00 | 7.82 |
| CC(C)Oc1ccc(CN2CCC(C(=O)c3ncco3)CC2)cc1 [Example 23, [1-(4-Isopropoxy-benzyl)-piperidin-4-yl]-oxazol-2-yl-methanone] | 5.30 | < 5.00 |
| CS(=O)(=O)c1cc(Br)ccc1CN1CCC(C(=O)c2ncco2)CC1 [Example 25, [1-(4-Bromo-2-methanesulfonyl-benzyl)-piperidin-4-yl]-oxazol-2-yl-methanone] | 7.89 | 7.64 |
| O=C(c1ncco1)C1CCN(Cc2ccc(Br)c([N+](=O)[O-])c2)CC1 [Example 26, [1-(4-Bromo-3-nitro-benzyl)-piperidin-4-yl]-oxazol-2-yl-methanone] | 8.52 | 8.05 |
| O=C(c1ncco1)C1CCN(Cc2ccc(Br)cc2F)CC1 [Example 27, [1-(4-Bromo-2-fluoro-benzyl)-piperidin-4-yl]-oxazol-2-yl-methanone] | 7.96 | 7.12 |
| O=C(c1ncco1)C1CCN(Cc2ccc(F)cc2)CC1 [Example 30, [1-(4-Fluoro-benzyl)-piperidin-4-yl]-oxazol-2-yl-methanone] | 6.83 | 6.06 |
| O=C(c1ncco1)C1CCN(Cc2ccccc2F)CC1 [Example 32, [1-(2-Fluoro-benzyl)-piperidin-4-yl]-oxazol-2-yl-methanone] | 5.82 | < 5.00 |
| O=C(c1ncco1)C1CCN(Cc2ccccc2Cl)CC1 [Example 33, [1-(2-Chloro-benzyl)-piperidin-4-yl]-oxazol-2-yl-methanone] | 6.81 | 6.05 |
| O=C(c1ncco1)C1CCN(Cc2ccc(Cl)cc2)CC1 [Example 35, [1-(4-Chloro-benzyl)-piperidin-4-yl]-oxazol-2-yl-methanone] | 7.72 | 7.40 |
| O=C(c1ncco1)C1CCN(Cc2ccc(OC(F)(F)F)cc2)CC1 [Example 36, Oxazol-2-yl-[1-(4-trifluoromethoxy-benzyl)-piperidin-4-yl]-methanone] | 7.60 | 7.40 |
| Cn1ccc2cc(CN3CCC(C(=O)c4ncco4)CC3)ccc21 [Example 39, [1-(1-Methyl-1H-indol-5-ylmethyl)-piperidin-4-yl]-oxazot-2-yl-methanone] | 7.10 | 5.70 |
| Cn1ccc2ccc(CN3CCC(C(=O)c4ncco4)CC3)cc21 [Example 40, [1-(1-Methyl-1H-indol-6-ylmethyl)-piperidin-4-yl]-oxazol-2-yl-methanone] | 7.03 | 6.41 |

Results, then the molecule that gave them:

| pIC50 [1] | pIC50 [2] | SMILES |
| --- | --- | --- |
| 7.29 | 7.02 | O=C(c1ncco1)C1CCN(Cc2cccc(C(F)(F)F)c2)CC1 [Example 18, Oxazol-2-yl-[1-(3-trifluoromethyl-benzyl)-piperidin-4-yl]-methanone] |
| 7.92 | 6.10 | O=C(c1ncco1)C1CCN(Cc2cccc(OC3CCCCC3)c2)CC1 [Example 22, [1-(3-Cyclohexyloxy-benzyl)-piperidin-4-yl]-oxazol-2-yl-methanone] |
| 6.77 | 5.85 | CCOc1cccc(CN2CCC(C(=O)c3ncco3)CC2)c1 [Example 29, [1-(3-Ethoxy-benzyl)-piperidin-4-yl]-oxazol-2-yl-methanone] |
| 6.52 | 5.85 | O=C(c1ncco1)C1CCN(Cc2cccc(F)c2)CC1 [Example 31, [1-(3-Fluoro-benzyl)-piperidin-4-yl]-oxazol-2-yl-methanone] |
| 7.11 | 6.52 | O=C(c1ncco1)C1CCN(Cc2cccc(Cl)c2)CC1 [Example 34, [1-(3-Chloro-benzyl)-piperidin-4-yl]-oxazol-2-yl-methanone] |
| 7.60 | 7.40 | O=C(c1ncco1)C1CCN(Cc2cccc(OC(F)(F)F)c2)CC1 [Example 37, Oxazol-2-yl-[1-(3-trifluoromethoxy-benzyl)-piperidin-4-yl]-methanone] |
| 7.52 | 7.12 | O=C(c1ncco1)C1CCN(Cc2ccc(F)c(F)c2)CC1 [Example 38, [1-(3,4-Difluoro-benzyl)-piperidin-4-yl]-oxazol-2-yl-methanone] |
